Reference: US9233903B2, “Pharmaceutical substances on the basis of mitochondria-addressed antioxidants” (Mitotech SA, priority 2009, dated 2016)

Key:
[1] = test system: E. coli MG1655 pLUX::PkatG
From the text: (§1) To test pro-oxidant and antioxidant properties of mitochondria-addressed compounds of general formula (I), a method for determining oxidative stress in E. coli cells was developed. For this purpose, a biosensor system was created based on luxAB genes encoding bacterial luciferases to study effect of penetrating ions on oxidative stress in a bacterial cell.
The lux-biosensors were developed on the basis of these inducible promoters.
(§2) All the promoters used in the method, with corresponding regulatory regions, were obtained from the genome of the E. coli K12 MG1655 bacteria by the PCR method with the use of specific synthesized primers. A non-promoter vector with the pBR322 replicon and bla gene responsible for resistance to ampicillin (selective marker) was used as a vector. The promoter region was embedded into the plasmid at the EcoRI-BamHI sites. The lux operon of Ph. luminescens consisting of five genes, luxCDABE, was selected as the lux cassette.
(§3) In the first phase of testing, conditions for oxidative stress induction at which the maximum induction of luminescence occurs, were selected.

[2] = test system: HeLa cells; experiment: H2O2-induced oxidative stress in cells, DCF-DA cytofluorimetry; assay type: cell-based, human; settings: incubation for 1 to 5 hours
Procedure: To measure the level of oxidative stress stimulated by H2O2, cells were stained with fluorescent dye DCF-DA (2′,7′-dichloro-dihydrofluorescein diacetate), and the level of fluorescence of the dye was measured with a cytofluorimeter.
Estimates were made on the basis of seven experiments. Data were estimated with respect to a group of the control cells lying on the diagram in the area of low DCF-DA fluorescence (50% of the population), this group of cells was taken as 100% and indicators for every action were estimated relative to this group.

[3] = test system: gramicidin channels; experiment: Protection of gramicidin channels in bilayer membrane, damage by FeSO4, ascorbate and tert-butyl hydroperoxide; assay type: biochemical; settings: FeSO4, ascorbate, tert-butyl hydroperoxide; FIG. 3B
From the text: A method was developed which allows the study of the antioxidant activity of compounds in a simple system consisting of a bilayer membrane, […]). […]

[4] = Penetrating ability on artificial black (bilayer phospholipid) membranes, membrane potential; assay type: physicochemical; settings: for penetrating ability: bilayer membrane, comparison between compounds; for membrane potential (Δψ) generated: concentration range from 10^−7 to 10^−6 M, FIG. 2B
From the text: To test the penetrating ability of mitochondria-addressed compounds of structure (I), a method is used based on the ability of ions to penetrate through the phospholipid membrane bilayer moving along the concentration gradient. […] If a charged substance can penetrate through the bilayer membrane, its rapid diffusion out of the chamber having a high concentration of the substance, to the chamber having a low concentration of the substance, occurs, and thus a membrane potential difference is created. For ions which are carrying one charge and able to easily penetrate through the membrane, a 10-fold concentration gradient allows for creation of a potential of 60 mV (according to the Nernst equation). This method was used in various studies of the ability of ions to pass through the lipid bilayer of the membrane.

[5] = test system: HeLa and normal human diploid fibroblasts; experiment: Protection of cells against H2O2-induced death (apoptosis), Hoechst/PI counting; assay type: cell-based; settings: incubation with the cells for 5 to 7 days
Procedure: Testing of the antioxidant capacity of the compounds was performed using the methods of cytofluometry and fluorescence microscopy.
In preliminary experiments for each cell culture, the optimal concentration of H2O2 which causes significant (60% to 80%) cell apoptosis with no visible signs of necrosis was selected. To determine the chromatin condensation and fragmentation which occurs in apoptotic cells, the fluorescent dye Hoechst was used. The dye at a concentration of 1 μg/ml was added to live or fixed cells at the end of a 30 min incubation. To determine necrosis, the fluorescent dye propidium iodide (PI) at a concentration of 2 μg/ml was added to non-fixed cells. The percentage of apoptotic and necrotic cells was determined by counting the number of cells with fragmented nuclei and cells permeable to propidium iodide, respectively.

[6] = test system: mitochondria; experiment: Accumulation in mitochondria measured with tetraphenylphosphonium-selective electrode; assay type: in vitro ADME; settings: FCCP uncoupler; FIG. 4
Procedure: The ability of compounds of general formula (I) to accumulate in mitochondria was tested using a tetraphenylphosphonium-selective electrode. The method is used for compounds of general formula (I) in which the lipophilic cation tetraphenylphosphonium is used as the target group. With this electrode, it is possible to measure distribution of tetraphenylphosphonium cation (or compounds which comprise this cation) between the mitochondrial matrix and the medium.

[7] = Solubility in aqueous solutions
[8] = test system: E. coli MG1655 pLUX::PsoxS; assay type: cell-based
From the text: as §1
The PsoxS promoter is activated when superoxide ion-radical appears in the environment. The lux-biosensors were developed on the basis of these inducible promoters.
as §2, §3

[9] = test system: gramicidin channels; experiment: Protection of gramicidin channels in bilayer membrane, damage by photoactivated phthalocyanine; assay type: biochemical; settings: photoactivation of phthalocyanine; FIG. 3A
From the text: A method was developed which allows the study of the antioxidant activity of compounds in a simple system consisting of a bilayer membrane, a conducting protein gramicidin and a photosensitizer (Mito Tracker Red, Invitrogen, Carlsbad, Calif.), thrice sulfonated aluminum phthalocyanine or zinc phthalocyanine). The method uses the ability of reactive oxygen species generated by photoactivation of the photosensitizer molecules to damage gramicidin channels, resulting in a sharp decrease in the conducting ability of the bilayer membrane.

## OO [Compound H2O2, hydrogen peroxide]
[1]; FIG. 10A
  time at which induction of luminescence becomes evident: ≤ 15 min
  time to maximum luminescence: one hour
[1]; optimal concentrations of H2O2
  ratio of luminescence intensity between control cells and induced cells: 1/80

## COC1=C(OC)C(=O)C(CCCCCCCCCC[P+](c2ccccc2)(c2ccccc2)c2ccccc2)=C(C)C1=O [MitoQ]
[2]
  effect on H2O2-induced oxidative stress in cells: did not prevent
[3]
  antioxidant efficiency, protection of gramicidin channels: less efficient antioxidants
[4]
  penetrating ability: less penetrating abilities compared to SkQ3 or SkQR1
[5]
  resistance of cells to H2O2: increase resistance of cells to H2O2

## CC1=C(C)C(=O)C(CCCCCCCCCC[P+](c2ccccc2)(c2ccccc2)c2ccccc2)=CC1=O [SkQ1, [10-(4,5-dimethyl-3,6-dioxo-cyclohexa-1,4-dien-1-yl)decyl]-triphenylphosphonium bromide]
[6]
  energy-independent accumulation in mitochondria: independent of the degree of energization of the mitochondria

## CC1=C(C)C(=O)C(CCCCCCCCCC[P+](c2ccccc2)(c2ccccc2)c2ccccc2)=C(C)C1=O [SkQ3]
[3]
  antioxidant efficiency, protection of gramicidin channels: less efficient antioxidants

## CC1=C(C)C(=O)C(CCCCC[P+](c2ccccc2)(c2ccccc2)c2ccccc2)=CC1=O [SkQ5]
[6]
  energy-independent accumulation in mitochondria: reduced

## COc1ccc2c(CC(=O)OCCCCCCCC3=CC(=O)C(C)=C(C)C3=O)c3[n+](cc2c1OC)CCc1cc2c(cc1-3)OCO2 [SkQB1, 13-[7-(4,5-dimethyl-3,6-dioxo-cyclohexa-1,4-dien-1-yl)heptyloxycarbonyl-methyl]berberine]
[7]
  solubility in aqueous solutions: poor solubility
[4]
  membrane potential (Δψ) generated: almost the same Δψ as SkQ1

## COc1cc2c(cc1OC)-c1c(CC(=O)OCCCCCCCC3=CC(=O)C(C)=C(C)C3=O)c3ccc(OC)c(OC)c3c[n+]1CC2 [SkQBP1, 13-[7-(4,5-dimethyl-3,6-dioxo-cyclohexa-1,4-dien-1-yl)heptyloxycarbonyl-methyl]palmatine]
[4]
  membrane potential (Δψ) generated: almost the same Δψ as SkQ1

## CC/N=c1/cc2oc3cc(NCC)c(C)cc3c(-c3ccccc3C(=O)OCCCCCCCCCCC3=CC(=O)C(C)=C(C)C3=O)c-2cc1C [SkQR1]
[2]
  effect on H2O2-induced oxidative stress in cells: has antioxidant activity
[4]; FIG. 2A
  concentration above which compound ceases to obey the Nernst equation (membrane damage): higher than 5×10^−5 M
[4]
  penetrating ability: higher penetrating ability

## C[n+]1ccc(-c2cc[n+](C)cc2)cc1 [paraquat]
[8]; FIG. 10B
  time at which induction of luminescence becomes evident: 15 to 20 min
  time to maximum luminescence: two hours
[8]; optimal concentrations of paraquat
  ratio of luminescence intensity between control cells and induced cells: 1/100

## superoxide dismutase
[9]
  prevention of fall in membrane conductance (gramicidin channels): effectively blocked
